Results published in PMC12518639, “Apomorphine is a novel necroptosis inhibitor targeting mixed lineage kinase domain-like protein oligomerization” (Cell Death Discovery, 2025).

Tests used:
[1] = molecular target: T1, Nt-hMLKL (2–154) (Homo sapiens, UniProt Q8NB16); test: SPR binding to Nt-hMLKL; settings: for Kd: SPR, CM5 chip, 25 °C
T1 construct: Nt-hMLKL (2–154), Nt-mMLKL (1–180), and Ct-hMLKL (183–471) were generated using the pBT7-N-His vector; His (N); made in house; host or cells: E. coli BL21
T1 sequence (Q8NB16 2-154): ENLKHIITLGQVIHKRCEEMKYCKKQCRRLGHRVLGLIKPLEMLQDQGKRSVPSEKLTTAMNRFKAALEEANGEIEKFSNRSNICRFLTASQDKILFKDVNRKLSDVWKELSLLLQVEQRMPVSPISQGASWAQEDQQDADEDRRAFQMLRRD
Text: (§1) The hMLKL plasmid (RC213152, OriGene, Rockville, MD, USA), and recombinant Wt-hMLKL (ab241453, Abcam) and Wt-mMLKL (MBS1379843, MyBioSource, San Diego, CA, USA) proteins were purchased. Nt-hMLKL (2–154), Nt-mMLKL (1–180), and Ct-hMLKL (183–471) were generated using the pBT7-N-His vector. Nt-hMLKL^C86A, Nt-hMLKL^F148A, -hMLKL^C86A/L89A/D94A, and Nt-hMLKL^R145A/R146A/F148A/M150A were generated using the Site-directed Mutagenesis Kit (EZ004S, Enzynomics, S. Korea). These constructs were subcloned into pBT7-N-His and pET-15b plasmid vectors. E. coli BL21 cells transformed with the cloned expression vectors were cultured in LB medium and supplemented with 100 μg/mL ampicillin until an OD at 600 nm of 0.5–0.6 was reached. The cultures were induced by 1 mM IPTG (367-93-1, Sigma-Aldrich). The cells were lysed and centrifuged. The clear supernatants were subjected to Ni-NTA affinity chromatography (175018169, QIAGEN, Hilden, Germany). Plasmids encoding mMLKL (1–464)–gyrase fusion constructs were kindly provided by Prof. James Murphy (Cell Signalling and Cell Death Division, The Walter and Eliza Hall Institute of Medical Research, Parkville, Victoria 3052, Australia).
The interactions of Wt-hMLKL, Wt-mMLKL, Nt-mMLKL, Nt, and Ct-hMLKL proteins with Re-APO or Ox-APO were detected through SPR analysis using Biacore™ T200 (Cytiva, Marlborough, MA, USA). Each MLKL protein was immobilized on a CM5 sensor chip. To derive the Rligand values, coupling processes were performed based on the molecular weights of the MLKL protein (MW ligand) and Re-APO or Ox-APO (MW analyte). Re-APO or Ox-APO was injected into an HBS buffer (10 mM HEPES, 150 mM NaCl, 3.4 mM EDTA, and 0.005% Tween 20, pH 7.4) at 25 °C (10 μL/min flow rate). Sensorgrams were recorded and analyzed in real-time using the control software in the BIAcore T200 system. All data were analyzed using the BIA evaluation software (Cytiva).

[2] = molecular target: T2, Wt-mMLKL (Mus musculus, UniProt Q9D2Y4); test: SPR binding to Wt-mMLKL; settings: CM5 chip, 25 °C
T2 construct: purchased MyBioSource MBS1379843
Text: as §1, with “James Murphy (Cell Signalling and Cell Death Division, The Walter and Eliza Hall Institute of Medical Research, Parkville, Victoria 3052, Australia).” left out
The interactions of Wt-hMLKL, Wt-mMLKL, Nt-mMLKL, Nt, and Ct-hMLKL proteins with Re-APO or Ox-APO were detected through SPR analysis using Biacore™ T200 (Cytiva, Marlborough, MA, USA). […] Sensorgrams were recorded and analyzed in real-time using the control software in the BIAcore T200 system. All data were analyzed using the BIA evaluation software (Cytiva).

[3] = tested on: mouse MLKL (mMLKL); test: MLKL oligomerization Western blot in J774A.1 cells; assay type: cell-based; settings: J774A.1, TBZ, 20 μM, 8 h
Experimental: Fig. 2 Effect of redox-sensitive APO on MLKL oligomerization. A Chemical structure of APO. APO undergoes auto-oxidation to form the oxidized form (Ox-APO), while the addition of DTT preserves the reduced form (Re-APO). The red highlights indicate the sites where APO loses hydrogen and electrons during the oxidation process. B Real-time 1D ^1H NMR spectra showing the degree of oxidation of APO. APO was dissolved from its powdered form in DPBS and incubated at 25 °C for 36 h. Real-time 1D ^1H NMR spectra were measured at a 2 h intervals after filtration through a 0.2 μm syringe filter to remove precipitates. […] C MLKL oligomerization is inhibited by APO. THP-1 cells were treated with TBZ and Re-APO or Ox-APO for 8 h. Western blot analysis of WCLs was performed under non-reducing and reducing conditions using the indicated antibodies. Percentage changes of p-MLKL oligomer band relative to GAPDH were shown. The p value for MLKL oligomer band intensity was calculated based on the average intensity of the tetramer and octamer bands. Octa octamer, Tetra tetramer, Mono monomer. Mean ± SEM (n = 3). **p < 0.001, ns not significant, one-way ANOVA. D THP-1 cells were treated with TBZ and Ox-APO or Re-APO for 8 h and then stained with DAPI and MLKL for confocal microscopy. In the intensity graph, green indicates MLKL. The signal intensity of MLKL fluorescence from the plasma membrane to the cytosol was measured using FluoView FV1000 software. Mean ± SEM (n > 100). **p < 0.01, ***p < 0.001, one-way ANOVA. E J774A.1 mouse monocytic cells were treated with TBZ and 20 μM Re-APO or Ox-APO for 8 h. Western blot analysis of WCLs was performed under non-reducing and reducing conditions using the indicated antibodies.
The cells were harvested and lysed in 1× RIPA buffer (R4100-010, GenDEPOT, Katy, TX, USA) containing protease (P3100-001, GenDEPOT) and phosphatase (1862495, Thermo Fisher Scientific) inhibitors. WCLs were then centrifuged at 20,000×g for 30 min at 4 °C and subjected to non-reducing or reducing 8–12% SDS-PAGE gel electrophoresis. The membrane was blocked with 5% non-fat milk in TBS and probed with antibodies. Antibodies to hMLKL (14993S), mMLKL (97705S), phospho-hMLKL (Ser358) (91689S), phospho-mMLKL (Ser345) (37333S), phospho-hRIP1 (Ser166) (65746S), mRIP1 (3493S), phospho-mRIP1 (Ser321) (38662S), phospho-hRIP3 (Ser227) (93654), mRIP3 (95702S), p-mRIP3 (Thr231/Ser232) (91702S), and LDH (2012S) (Cell Signaling Technology, Danvers, MA, USA), and GAPDH (LF-PA0018, Abfrontier, S. Korea), hRIP1 (ab72139, Abcam, Cambridge, UK), hRIP3 (sc-135170, Santa Cruz Biotechnology, Dallas, TX, USA), HMGB1 (ab78923, Abcam), and LAMP1 (ab24170, Abcam) antibodies were used.

T2 sequence (Q9D2Y4 whole entry): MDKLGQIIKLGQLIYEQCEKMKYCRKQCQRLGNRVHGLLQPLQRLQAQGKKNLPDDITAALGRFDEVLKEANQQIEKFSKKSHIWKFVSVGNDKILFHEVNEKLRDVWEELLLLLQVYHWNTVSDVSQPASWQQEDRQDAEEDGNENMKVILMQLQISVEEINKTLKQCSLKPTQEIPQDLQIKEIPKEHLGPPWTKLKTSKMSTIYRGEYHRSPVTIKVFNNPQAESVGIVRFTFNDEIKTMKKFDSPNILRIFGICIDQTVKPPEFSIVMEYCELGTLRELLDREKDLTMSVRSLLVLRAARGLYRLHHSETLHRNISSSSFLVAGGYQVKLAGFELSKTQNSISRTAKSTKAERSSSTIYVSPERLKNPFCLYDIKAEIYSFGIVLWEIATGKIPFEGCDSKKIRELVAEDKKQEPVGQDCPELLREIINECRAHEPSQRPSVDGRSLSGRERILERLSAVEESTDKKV

| Structure (SMILES) | Kd [1] [µM] | fold difference of binding versus Re-APO ([1]; from KD values) [fold] | Kd [2] [µM] | formation of mMLKL tetramers and octamers [3] | phosphorylation of mRIP1, mRIP3 and mMLKL [3] |
| --- | --- | --- | --- | --- | --- |
| CN1CCc2cccc3c4c(cc1c23)C=CC(=O)C4=O [Ox-APO] | 1.31 | ~1000 | 0.000381 | strongly prevented | little effect |
| CN1CCc2cccc3c2C1Cc1ccc(O)c(O)c1-3 (stereo not drawn) [Re-APO] | 1140 | – | 0.0229 | strongly prevented | little effect |
